One compound from BindingDB's records for doi:10.1021/bi3002067 (The University of Auckland, 2012) can be followed below.

For the experiment, the target named is Salicylate synthase (Mycobacterium tuberculosis (strain CDC 1551 / Oshkosh), UniProt P9WFX0). Description: Fluorescence-Based Thermal Shift Assay. The protocol:
The thermal stability of MbtI in the absence and presence of inhibitors was measured using a fluorescence-based thermal shift assay.

Salicylate synthase, sequence (P9WFX0 whole entry): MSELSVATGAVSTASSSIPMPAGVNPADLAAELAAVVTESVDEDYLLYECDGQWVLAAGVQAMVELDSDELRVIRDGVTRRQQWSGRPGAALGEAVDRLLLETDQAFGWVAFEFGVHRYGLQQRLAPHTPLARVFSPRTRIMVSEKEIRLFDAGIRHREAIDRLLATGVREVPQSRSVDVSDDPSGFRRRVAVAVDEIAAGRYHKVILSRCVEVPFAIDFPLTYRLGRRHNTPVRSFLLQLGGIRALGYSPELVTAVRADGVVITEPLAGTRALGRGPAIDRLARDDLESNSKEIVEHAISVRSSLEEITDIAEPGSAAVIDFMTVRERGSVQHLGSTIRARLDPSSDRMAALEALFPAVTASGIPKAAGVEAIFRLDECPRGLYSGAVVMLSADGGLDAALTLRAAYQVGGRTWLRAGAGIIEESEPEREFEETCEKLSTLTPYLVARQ

What is called Ki is the dissociation constant of the complex between target and ligand, obtained from inhibition or displacement. `O=C(O)C(=CC1CC1)Oc1cccc(C(=O)O)c1O` [cyclopropyl-AMT]: the inhibition constant Ki was determined as 12 µM.
